Several values for one entry are separate records, joined by “and”; a condition that tells them apart may be missing. Equal values may be shown once.
Experiments:
U87MG = assay: WST-1 proliferation assay, U87MG; type: cell-based, human; details: Homo sapiens, U-87 MG
Description: (§1) AP-121 was prepared as 5 mM stock solution in distilled sterile water, Temozolomide (TMZ) (Haorui Pharma-Chem, Inc., Edison, N.J.) was prepared as 100 mM in sterile filtrated DMSO; Adriamycin (ADR) (Sigma) was prepared as 1 mM in distilled sterile water; Camptothecin (CTP) (Sigma) was prepared as 10 mM solution in 0.1 N NaOH; Tarceva (Proteinkinase, Germany) was prepared as 5 mM solution in sterile DMSO. All compound stocks were kept at −20° C. 2000 cells were plated in each well of 96-well flat bottom plates, and incubated overnight at 37 °C in 5% CO2. The growth of plated cells was measured by adding […] of WST-1 reagent (Roche Applied Sciences, Germany) to 3 control wells and measuring the absorbance at 650 nm and at 450 nm, respectively, with a SpectraMax250 plate reader. […] After this incubation, VVST-1 reagent was added to the wells and OD650-OD450 values were calculated as before. six wells were assayed for each conditions and standard deviation was determined: all experiments were performed at least three times independently. […] Six different concentrations of each drug were used in combinations index measurements and compared to +/− cells, and compared to controls without compound.

A172 = assay: WST-1 proliferation assay, A172; type: cell-based, human; details: Homo sapiens, A 172
Description: as §1

U118MG = assay: WST-1 proliferation assay, U118MG; type: cell-based, human; details: Homo sapiens, U-118-MG
Description: as §1, with “compound. Each combination was repeated 6 times at 2 different time points (24 and 96 hours), each of the above experiments was repeated 3 times to obtain valid results.” for “compound.”

LN-18 = assay: WST-1 proliferation assay, LN-18; type: cell-based; details: Homo sapiens
Description: (§2) 2000 cells were plated in each well of 96-well flat bottom plates, and incubated overnight at 37 °C in 5% CO2. The growth of plated cells was measured by adding […] of WST-1 reagent (Roche Applied Sciences, Germany) to 3 control wells and measuring the absorbance at 650 nm and at 450 nm, respectively, with a SpectraMax250 plate reader. […] After this incubation, VVST-1 reagent was added to the wells and OD650-OD450 values were calculated as before. six wells were assayed for each conditions and standard deviation was determined: all experiments were performed at least three times independently. […] Six different concentrations of each drug were used in combinations index measurements and compared to +/− cells, and compared to controls without compound.

LN-229 = assay: WST-1 proliferation assay, LN-229; type: cell-based; details: Homo sapiens
Description: (§3) 2000 cells were plated in each well of 96-well flat bottom plates, and incubated overnight at 37 °C in 5% CO2. The growth of plated cells was measured by adding […] of WST-1 reagent (Roche Applied Sciences, Germany) to 3 control wells and measuring the absorbance at 650 nm and at 450 nm, respectively, with a SpectraMax250 plate reader. If the OD650-OD450 values were above 0.5, the remainder of the plate was used for incubation with AP-121, other pharmacological agents or solvent control for 96 hours.
(§4) After this incubation, VVST-1 reagent was added to the wells and OD650-OD450 values were calculated as before. six wells were assayed for each conditions and standard deviation was determined: all experiments were performed at least three times independently. After elucidation of individual IC50 values for each compound, the simultaneous combination treatment of AP-121 and the chemotherapeutic agent at their IC50 ratio was performed; combination index (CI) was determined by Calcusyn software package (Biosoft, Ferguson, Mo.). Data were evaluated by calculating the means of the combination index (CI), where a CI of <0.3 indicates a strong synergistic effect, 0.3<CI<0.7 a synergistic effect, 0.7<CI<0.9 moderate synergy, 0.9<CI<1 additive effect and CI>1 antagonistic effect, respectively.
For the AP-121 cell proliferation drug combination measurements, the ED50 was determined for each drug. Six different concentrations of each drug were used in combinations index measurements and compared to +/− cells, and compared to controls without compound. Each combination was repeated 6 times at 2 different time points (24 and 96 hours), each of the above experiments was repeated 3 times to obtain valid results.

T98G = assay: WST-1 proliferation assay, T98G; type: cell-based; details: Homo sapiens
Description: as §1

[1] = test system: brain tumor cell lines U87MG, A172, LN-18, LN-229, U118MG, and T98G; assay: WST-1 proliferation assay, summaries over the brain tumor cell line panel; type: cell-based, human; details: together with AP-121; all three cell lines (U87MG, A172, U118MG)
Description: As a biological test panel, we selected the brain tumor cell lines U87MG, A172, LN-18, LN-229, U118MG, and T98G that have different levels of mutations in p53 and PTEN as well as FAS receptor expression:
as §3, with “If the OD650-OD450 values were above 0.5, the remainder of the plate was used for incubation with AP-121, other pharmacological agents or solvent control for 96 hours.” left out
as §4, with “respectively. […]” for “respectively.”

NCI-H460 (FAS positive) = assay: WST-1 proliferation assay, NCI-H460; type: cell-based, human; details: NCI-H460; single agent, per experiment line
Description: as §2, with “DDP and GMZ” for “Six different concentrations of each drug”, “both purchased from Sigma-aldrich Corp., St. Louis, Mo., USA. The following cell lines were used: A549 (FAS negative), NCI-H460 (FAS positive),” for “used in combinations index measurements”, “HCC827 (FAS positive), all obtained from the ATTC, Rockville, Md., USA.” for “compared to +/− cells, and compared to controls without compound.”

A431 = details: mean ± SD from three independent experiments, read-out: ED50 values for induction of apoptosis; cited from earlier work
HeLa = details: mean ± SD from three independent experiments, read-out: ED50 values for induction of apoptosis; cited from earlier work
HCC827 (FAS positive) = assay: WST-1 proliferation assay, HCC827; type: cell-based, human; details: single agent, per experiment line
Description: as §2, with “DDP and GMZ” for “Six different concentrations of each drug”, “both purchased from Sigma-aldrich Corp., St. Louis, Mo., USA. The following cell lines were used: A549 (FAS negative), NCI-H460 (FAS positive),” for “used in combinations index measurements”, “HCC827 (FAS positive), all obtained from the ATTC, Rockville, Md., USA.” for “compared to +/− cells, and compared to controls without compound.”

[2] = test system: LNCaP androgen-sensitive human prostate adenocarcinoma cells; assay: Apo-ONE Homogenous Caspase-3/7 Assay in LNCaP cells; type: cell-based; details: AD + R1881, no CHEM
Description: FIG. 1. Depicts the in vitro effects of 1-O-octadecyl-2-O-methyl-glycero-3-phosphocholine (final concentration 10 μM), (ionizing) radiation (absorbed dose of 5 Gray units; indicated as “RT”), and a combination thereof on programmed cell death (apoptosis) and the survival rate of LNCaP androgen-sensitive human prostate adenocarcinoma cells. Apoptosis was determined using the Apo-ONE™ Homogenous Caspase-317 Assay, Promega, Inc., Madison, Wis., USA according to the manufacturers instructions. The percentage of living cancer cells was estimated by means of trypan blue dye exclusion as described (Freshney, R. I. (1994) Culture of Animal Cells: A Manual of Basic Technique. 3rd Ed. Wiley-Liss. New York. USA). The cells were exposed to radiation six hours after (FIG. 1A), concomitantly with (FIG. 1B), or six hours before administration of 1-O-octadecyl-2-O-methyl-glycero-3-phospho-choline (FIG. 1C). The caspase assay was performed 12 hours after exposure to radiation. The respective data shown represent the average of two independent experiments.
First, the in vitro effects of 1-O-octadecyl-2-O-methyl-glycero-3-phosphocholine, (ionizing) radiation, and a combination thereof on programmed cell death (apoptosis) and the survival rate of LNCaP androgen-sensitive human prostate adenocarcinoma cells were measured. The LNCaP cell line was established from a metastatic lesion of the adenocarcinoma. The cells were treated with a final concentration of 10 μM 1-O-octadecyl-2-O-methyl-glycero-3-phosphocholine and (ionizing) radiation corresponding to an absorbed dose of 5 Gray units.
Apoptosis was determined using the Apo-ONE™ Homogenous Caspase-3/7 Assay, Promega, Inc., Madison, VV1, USA according to the manufacturers instructions. The percentage of living tumor cells was estimated by means of trypan blue dye exclusion as described (Freshney, R. I. (1994) Culture of Animal Cells: A Manual of Basic Technique. 3rd Ed. Wiley-Liss. New York. USA)
The cells were exposed to radiation six hours after (FIG. 1A), concomitantly with (FIG. 1B), or six hours before administration of 1-O-octadecyl-2-O-methyl-glycero-3-phospho-choline (FIG. 1C). The caspase assay was performed 12 hours after exposure to radiation. The respective data shown represent the average of two independent experiments.
(§5) In a further approach, 10 μM 1-O-octadecyl-2-O-methyl-glycero-3-phosphocholine (final concentration; “CHEM”) and (ionizing) radiation (5 Gray units; “RT”) were administered simultaneously to the LNCaP cells but the subsequent incubation period was extended to 24 hours. Apoptosis was measured using the Apo-ONE™ Homogenous Caspase-3/7 Assay as described above and expressed as relative fluorescence units (RFLU). The percentage of apoptotic cells was determined by flow cytometric analysis of annexin V-PE positive-stained and 7-AAD (7-Amino ActinomycinD) negative-stained cells (both purchased from BD Biosciences, San Jose, Calif., USA) according to established standard protocols. The data represent means±SEM from three independent experiments.
(§6) Apoptosis was measured using the Apo-ONE™ Homogenous Caspase-3/7 Assay as described above and expressed as relative fluorescence units (RFLU). The percentage of apoptotic cells was determined via annexin V-PE/7-AAD staining as described above. The caspase-317 assay and annexin staining were performed 22 hours after CHEM treatment.

LNCaP cells = assay: flow cytometric analysis of annexin V-PE positive / 7-AAD negative LNCaP cells; type: cell-based, human; details: AD + R1881, no CHEM
Description: as §5
Next, the interaction of 1-O-octadecyl-2-O-methyl-glycero-3-phosphocholine administration (“CHEM”) and androgen deprivation (“AD”) was investigated. LNCaP cells were deprived of androgen for two days by charcoal absorption of serum according to established procedures well known in the art. CHEM was added in a final concentration of 5 μM and 10 μM, respectively.
as §6

Structure (SMILES)	IC50 (U87MG) [µM]	IC50 (A172) [µM]	IC50 (U118MG) [µM]	IC50 (LN-18) [µM]	IC50 (LN-229) [µM]	IC50 (T98G) [µM]	other results
COc1cccc2c1C(=O)c1c(O)c3c(c(O)c1C2=O)C[C@@](O)(C(=O)CO)C[C@@H]3O[C@H]1C[C@H](N)[C@H](O)[C@H](C)O1 [ADR, Adriamycin]	0.11	0.07	0.12	0.09	0.13	0.17	–
Cn1nnc2c(C(N)=O)ncn2c1=O [TMZ, Temozolomide]	425	38.3	382	554	278	608	effect of combination [1]: strong synergistic effect (a CI of <0.3 indicates a strong synergistic effect)
Nc1ccn([C@@H]2O[C@H](CO)[C@@H](O)C2(F)F)c(=O)n1 [GMZ, gemicitabin, reference compound]	–	–	–	–	–	–	IC50 (NCI-H460 (FAS positive)): 0.003 µM and 0.006 µM
CCCCCCCCCCCCCCCCOP(=O)([O-])OCC[N+](C)(C)C [HePC]	–	–	–	–	–	–	EC50 (A431): 17.3 ± 3 µM; EC50 (HeLa): 8.17 ± 0.4 µM
[NH2][Pt]([NH2])([Cl])[Cl] [DDP, cisplatinum, reference compound]	–	–	–	–	–	–	IC50 (NCI-H460 (FAS positive)): 1.3 µM; IC50 (HCC827 (FAS positive)): 3.4 µM and 3.5 µM
CCCCCCCCCCCCCCCCCCOP(=O)([O-])OC1CC[N+](C)(C)CC1 [Perifosine]	–	–	–	–	–	–	EC50 (A431): 23.2 ± 2.7 µM; EC50 (HeLa): 9.27 ± 1.8 µM
CC[C@@]1(O)C(=O)OCc2c1cc1n(c2=O)Cc2cc3ccccc3nc2-1 [CPT, Camptothecin]	0.04	0.02	0.004	0.04	0.02	0.02	–
C#Cc1cccc(Nc2ncnc3cc(OCCOC)c(OCCOC)cc23)c1 [Tarceva]	5.9	18.8	18.8	20	3.9	14.4	–
C[C@]1(O)CC[C@H]2[C@@H]3CCC4=CC(=O)CCC4=C3C=C[C@@]21C [R1881, reference compound]	–	–	–	–	–	–	Caspase-3/7 activity (RFLU) [2]: 130 RFLU; % Annexin V-PE pos. cells (LNCaP cells): 7.0%

From patent publication US8324188B2, “Combinations of ET-18-O-CH3and anti-cancer agents for the treatment of cancer” (priority 2006, dated 2012)
